Tests used:
[1] = tested on: recombinant human anti-SARS-CoV antibody 03-018; assay type: binding; parameters: Binding of antibody 03-018 to linear peptides of the N protein of SARS-CoV Urbani / Binding of antibody 03-018 to looped/cyclic peptides of the N protein of SARS-CoV Urbani: unit not given here
[2] = tested on: control sera (pooled serum of ten healthy LUMC hospital workers; commercial negative donor pooled serum from the Dutch bloodbank); assay type: binding, human; parameters: Binding of Control serum LUMC to linear peptides / Binding of Control serum Blood-bank to linear peptides / Binding of Control serum LUMC to looped peptides / Binding of Control Serum Blood-Bank to Looped peptides / Binding of Control serum LUMC to linear peptides of the protein M of SARS-CoV Urbani / Binding of Control serum Blood-bank to linear peptides of the protein M of SARS-CoV Urbani / Binding of Control serum LUMC to looped peptides of the protein M of SARS-CoV Urbani / Binding of Control Serum Blood-Bank to Looped peptides of the protein M of SARS-CoV Urbani: unit not given here
[3] = tested on: antibodies in sera from SARS patients (sera 1a, 1b, 2, 6, 37, 62, London, SARS-yellow, SARS-green); assay type: binding, human; parameters: Binding of serum 6 to linear peptides of protein X1 of SARS-CoV Urbani / Binding of serum 37 to linear peptides of protein X1 of SARS-CoV Urbani / Binding of serum 6 to looped/cyclic peptide (PEPSCAN-ELISA) / Binding of serum 37 to looped/cyclic peptide (PEPSCAN-ELISA) / Binding of serum 37 to looped/cyclic peptides of protein X1 of SARS-CoV Urbani / Binding of serum 6 to linear peptides of protein X2 / Binding of serum 37 to linear peptides of protein X2 / Binding of serum 37 to looped/cyclic peptides of protein X2 of SARS-CoV Urbani / Binding of serum 6 to linear peptides of protein M of SARS-CoV Urbani / Binding of serum 37 to linear peptides of protein M of SARS-CoV Urbani / Binding of serum 6 to looped/cyclic peptides of protein M of SARS-CoV Urbani / Binding of serum 37 to looped/cyclic peptides of protein M of SARS-CoV Urbani / Binding of serum 6 to linear peptides of protein X3 of SARS-CoV Urbani / Binding of serum 37 to linear peptides of protein X3 of SARS-CoV Urbani / Binding of serum 37 to looped/cyclic peptides of protein X3 of SARS-CoV Urbani / Binding of serum 6 to linear peptides of protein X4 of SARS-CoV Urbani / Binding of serum 37 to linear peptides of protein X4 of SARS-CoV Urbani / Binding of serum 37 to looped/cyclic peptides of protein X4 of SARS-CoV Urbani / Binding of serum 6 to linear peptides of protein X5 of SARS-CoV Urbani / Binding of serum 37 to linear peptides of protein X5 of SARS-CoV Urbani / Binding of serum 37 to looped/cyclic peptides of protein X5 of SARS-CoV Urbani / Binding of serum 6 to linear peptides of protein N of SARS-CoV Urbani / Binding of serum 37 to linear peptides of protein N of SARS-CoV Urbani / Binding of serum 6 to linear peptide (PEPSCAN-ELISA) / Binding of serum 1a to looped/cyclic peptides of protein N of SARS-CoV Urbani / Binding of serum 1b to looped/cyclic peptides of protein N of SARS-CoV Urbani / Binding of serum 2 to looped/cyclic peptides of protein N of SARS-CoV Urbani / Binding of serum 6 to looped/cyclic peptides of protein N of SARS-CoV Urbani / Binding of serum 37 to looped/cyclic peptides of protein N of SARS-CoV Urbani / Binding of serum 62 to looped/cyclic peptides of protein N of SARS-CoV Urbani / Binding of serum London to looped/cyclic peptides of protein N of SARS-CoV Urbani / Binding of serum SARS-green to looped/cyclic peptides of protein N of SARS-CoV Urbani: unit not given here
[4] = tested on: rabbit serum obtained by immunizing a rabbit with the SARS-CoV strain Frankfurt 1; assay type: binding; parameters: Binding of a rabbit serum to linear peptides / Binding of a rabbit serum to looped peptides / Rabbit serum linear peptides / Rabbit serum looped peptides / Binding of a rabbit serum to linear peptides of protein N of SARS-CoV Urbani (Rabbit serum linear peptides) / Binding of a rabbit serum to looped/cyclic peptides of protein N of SARS-CoV Urbani (Rabbit serum looped peptides): unit not given here

Sequence | Binding of antibody 03-018 to linear peptides of the N protein of SARS-CoV Urbani [1] | Binding of antibody 03-018 to looped/cyclic peptides of the N protein of SARS-CoV Urbani [1] | Binding of serum 1a to linear peptides of protein N of SARS-CoV Urbani [3] | Binding of serum 1a to looped/cyclic peptides of protein N of SARS-CoV Urbani [3] | Binding of serum 1b to linear peptides of protein N of SARS-CoV Urbani [3] | Binding of serum 1b to looped/cyclic peptides of protein N of SARS-CoV Urbani [3] | Binding of serum 2 to linear peptides of protein N of SARS-CoV Urbani [3] | Binding of serum 2 to looped/cyclic peptides of protein N of SARS-CoV Urbani [3] | Binding of serum 6 to linear peptides of protein N of SARS-CoV Urbani [3] | Binding of serum 6 to looped/cyclic peptides of protein N of SARS-CoV Urbani [3] | Binding of serum 37 to linear peptides of protein N of SARS-CoV Urbani [3] | Binding of serum 37 to looped/cyclic peptides of protein N of SARS-CoV Urbani [3] | Binding of serum 62 to linear peptides of protein N of SARS-CoV Urbani [3] | Binding of serum 62 to looped/cyclic peptides of protein N of SARS-CoV Urbani [3] | Binding of serum London to linear peptides of protein N of SARS-CoV Urbani [3] | Binding of serum London to looped/cyclic peptides of protein N of SARS-CoV Urbani [3] | Binding of serum SARS-green to linear peptides of protein N of SARS-CoV Urbani [3] | Binding of serum SARS-green to looped/cyclic peptides of protein N of SARS-CoV Urbani [3] | Binding of serum SARS-yellow to linear peptides of protein N of SARS-CoV Urbani [3] | Binding of serum SARS-yellow to looped/cyclic peptides of protein N of SARS-CoV Urbani [3] | further results
AYKTFPPTEPKKDKK | 0.1 | 0.1 | 0.2 | 0.1 | 0.1 | 0.1 | 0.3 | 0.2 | 0.2 | 0.0 | 0.7 | 0.2 | 0.8 | 0.1 | 0.6 | 0.1 | 0.3 | 0.0 | 0.7 | 0.0 | Control Serum Blood-Bank Looped peptides [2]: 0.3; Control serum Blood-bank linear peptides [2]: 0.7; Control serum LUMC linear peptides [2]: 0.6; Control serum LUMC looped peptides [2]: 0.1; Binding of a rabbit serum to linear peptides of protein N of SARS-CoV Urbani (Rabbit serum linear peptides) [4]: 0.2; Binding of a rabbit serum to looped/cyclic peptides of protein N of SARS-CoV Urbani (Rabbit serum looped peptides) [4]: 0.0
DAYKTFPPTEPKKDK | 0.1 | 0.2 | 0.3 | 0.2 | 0.2 | 0.1 | 0.3 | 0.2 | 0.3 | 0.1 | 0.8 | 0.3 | 1.1 | 0.2 | 0.6 | 0.2 | 0.4 | 0.0 | 0.7 | 0.1 | Control Serum Blood-Bank Looped peptides [2]: 0.2; Control serum Blood-bank linear peptides [2]: 0.8; Control serum LUMC linear peptides [2]: 0.6; Control serum LUMC looped peptides [2]: 0.2; Binding of a rabbit serum to linear peptides of protein N of SARS-CoV Urbani (Rabbit serum linear peptides) [4]: 0.1; Binding of a rabbit serum to looped/cyclic peptides of protein N of SARS-CoV Urbani (Rabbit serum looped peptides) [4]: 0.1
DDQIGYYRRATRRVR | 0.1 | 0.3 | 0.3 | 0.4 | 0.1 | 0.2 | 0.3 | 0.5 | 0.3 | 0.4 | 0.7 | 0.9 | 0.9 | 0.7 | 0.7 | 0.5 | 0.6 | 0.4 | 0.6 | 0.5 | Binding of Control Serum Blood-Bank to Looped peptides [2]: 0.8; Binding of Control serum Blood-bank to linear peptides [2]: 1.0; Binding of Control serum LUMC to linear peptides [2]: 1.0; Binding of Control serum LUMC to looped peptides [2]: 0.8; Recognition of the peptide by the rabbit serum [4]: recognized
DFSRQLQNSMSGASA | 0.1 | 0.2 | 0.2 | 0.3 | 0.1 | 0.1 | 0.2 | 0.4 | 0.2 | 0.2 | 0.7 | 0.4 | 0.6 | 0.2 | 0.5 | 0.3 | 0.3 | 0.4 | 0.5 | 0.2 | Control Serum Blood-Bank Looped peptides [2]: 0.5; Control serum Blood-bank linear peptides [2]: 0.6; Control serum LUMC linear peptides [2]: 0.6; Control serum LUMC looped peptides [2]: 0.4; Binding of a rabbit serum to linear peptides of protein N of SARS-CoV Urbani (Rabbit serum linear peptides) [4]: 0.5; Binding of a rabbit serum to looped/cyclic peptides of protein N of SARS-CoV Urbani (Rabbit serum looped peptides) [4]: 0.6

Reference: patent publication US20070128217A1 (priority 2003, published 2007)
